Results as given in US9834558B2, “Substituted bridged urea analogs as sirtuin modulators” (GLAXOSMITHKLINE LLC, priority 2013, dated 2017).

Biological target: T1, SIRT1 (Homo sapiens, UniProt Q96EB6)
T1 sequence (Q96EB6 1-747): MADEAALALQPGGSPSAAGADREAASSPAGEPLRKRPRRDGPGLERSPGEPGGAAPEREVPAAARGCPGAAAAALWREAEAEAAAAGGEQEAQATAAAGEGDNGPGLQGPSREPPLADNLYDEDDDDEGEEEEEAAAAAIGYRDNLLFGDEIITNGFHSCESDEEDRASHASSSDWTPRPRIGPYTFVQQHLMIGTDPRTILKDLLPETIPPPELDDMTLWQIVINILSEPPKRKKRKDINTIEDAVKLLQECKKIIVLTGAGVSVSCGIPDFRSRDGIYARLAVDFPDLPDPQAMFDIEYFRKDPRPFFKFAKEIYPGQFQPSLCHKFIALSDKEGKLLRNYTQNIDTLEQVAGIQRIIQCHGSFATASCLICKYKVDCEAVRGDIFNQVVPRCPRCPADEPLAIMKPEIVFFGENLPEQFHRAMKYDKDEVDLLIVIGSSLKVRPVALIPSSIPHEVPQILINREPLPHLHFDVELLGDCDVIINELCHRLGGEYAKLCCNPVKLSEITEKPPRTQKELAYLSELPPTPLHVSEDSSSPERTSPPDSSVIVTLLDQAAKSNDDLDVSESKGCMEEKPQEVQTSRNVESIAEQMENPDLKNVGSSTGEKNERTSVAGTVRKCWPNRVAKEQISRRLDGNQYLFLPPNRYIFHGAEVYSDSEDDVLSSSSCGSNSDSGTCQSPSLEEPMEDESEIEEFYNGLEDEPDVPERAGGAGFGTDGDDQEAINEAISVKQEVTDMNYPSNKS
Test: Trp mass spectrometry assay of SIRT1 activation
Type: biochemical
Conditions: for TRP Activity (EC1.5) / Emax: Trp peptide assay; for TRP Activity (EC1.5): EC1.5 = concentration that results in 150% activation of SIRT1; for Emax: maximum activity relative to control (100%), read-out: TRP MAX RESP (percent maximum fold activation)
From the text: Mass spectrometry based assays were used to identify modulators of SIRT1 activity. […] The peptide was labeled with the fluorophore STMR (excitation 540 nm/emission 580 nm) at the C-terminus. The sequence of the peptide substrate was based on p53 with several modifications. In addition, the methionine residue naturally present in the sequence was replaced with the norleucine because the methionine may be susceptible to oxidation during synthesis and purification. The Trp based assay utilized a peptide having an amino acid residues as follows: Ac-R-H-K-K(Ac)-W-NH2 (SEQ ID NO: 2).
The Trp mass spectrometry assay was conducted as follows. 0.5 μM peptide substrate and 120 μM βNAD^+ were incubated with 10 nM SIRT1 for 25 minutes at 25° C. in a reaction buffer (50 mM HEPES pH 7.5, […], 1 mM DTT, 0.05% BSA). The SIRT1 protein was obtained by cloning the SirT1 gene into a T7-promoter containing vector, which was then expressed in BL21(DE3) bacterial cells and purified as described in further detail below. Test compound was added at varying concentrations to this reaction mixture and the resulting reactions were monitored. After the 25 minute incubation with SIRT1, 10 μL of 10% formic acid was added to stop the reaction. The resulting reactions were sealed and frozen for later mass spec analysis. The relative SIRT1 activity was then determined by measuring the amount of O-acetyl-ADP-ribose (OAADPR) formed (or, alternatively, the amount of deacetylated Trp peptide generated) by the NAD-dependent sirtuin deacetylation reaction in the presence of varying concentrations of the test compound versus control reactions lacking the test compound. The degree to which the test agent activated deacetylation by SIRT1 was expressed as EC1.5 (i.e., the concentration of compound required to increase SIRT1 activity by 50% over the control lacking test compound), and Percent Maximum Activation (i.e., the maximum activity relative to control (100%) obtained for the test compound).
This time point was the same as that used for test compounds and, within the linear range, the endpoint represents a change in velocity.
For the above assay, SIRT1 protein was expressed and purified as follows. The SirT1 gene was cloned into a T7-promoter containing vector and transformed into BL21(DE3). The protein was expressed by induction with 1 mM IPTG as an N-terminal His-tag fusion protein at 18° C. overnight and harvested at 30,000×g. Cells were lysed with lysozyme in lysis buffer (50 mM Tris-HCl, 2 mM Tris[2-carboxyethyl]phosphine (TCEP), 10 μM ZnCl2, 200 mM NaCl) and further treated with sonication for 10 min for complete lysis. The protein was purified over a Ni-NTA column (Amersham) and fractions containing pure protein were pooled, concentrated and run over a sizing column (Sephadex S200 26/60 global). The peak containing soluble protein was collected and run on an Ion-exchange column (MonoQ). Gradient elution (200 mM-500 mM NaCl) yielded pure protein. This protein was concentrated and dialyzed against dialysis buffer (20 mM Tris-HCl, 2 mM TCEP) overnight. The protein was aliquoted and frozen at −80° C. until further use.
“NT” means not tested; “ND” means not determinable.

[1] = Trp mass spectrometry assay, EC1.5 = concentration of test compound that results in 150% activation of SIRT1
[2] = concentration giving 150% activation of SIRT1, Trp peptide substrate
[3] = Trp mass spectrometry assay, concentration of test compound giving 150% activation of SIRT1

TRP Activity (EC1.5)	Emax	Compound	also measured
B (B (EC1.5 1-25 μM))	> 150%	Cc1cc(-c2ccc3c(n2)N(C(=O)NC2CCCC2)[C@H]2CCN3C2)ccn1 [(9S)-N-cyclopentyl-5-(2-methylpyridin-4-yl)-1,6,8-triazatricyclo[7.2.1.0 {2,7}]dodeca-2,4,6-triene-8-carboxamide]	–
–	–	O=C(NCCc1ccncc1)N1c2nc(-c3cccc(C(F)(F)F)c3)ccc2N2CC[C@H]1C2 [Example 613]	Tryp AVG EC1.5 (μM) [1]: B (B (EC1.5 1-25 μM))
A (A (EC1.5<1 μM))	> 150%	Cc1cc(-c2ccc3c(n2)N(C(=O)Nc2cnccn2)[C@H]2CCN3C2)cnc1C [(9S)-5-(5,6-dimethylpyridin-3-yl)-N-(pyrazin-2-yl)-1,6,8-triazatricyclo[7.2.1.0 {2,7}]dodeca-2(7),3,5-triene-8-carboxamide]	–
–	–	O=C(Nc1nccc(N2CCNCC2)n1)N1c2nc(-c3cccc(C(F)(F)F)c3)ccc2N2CC[C@H]1C2 [Example 745]	Tryp AVG EC1.5 (μM) [2]: B (B (EC1.5 1-25 μM))
A (A (EC1.5<1 μM))	> 150%	Cc1cc(-c2ccc3c(n2)N(C(=O)Nc2ccc4c(c2)OCCCO4)[C@H]2CCN3C2)ccn1 [(9S)-N-(3,4-dihydro-2H-1,5-benzodioxepin-7-yl)-5-(2-methylpyridin-4-yl)-1,6,8-triazatricyclo[7.2.1.0 {2,7}]dodeca-2,4,6-triene-8-carboxamide]	–
–	–	CC(C)(C)OC(=O)NCC#Cc1cc(NC(=O)N2c3nc(-c4cccc(C(F)(F)F)c4)ccc3N3CC[C@H]2C3)cc(-c2cnco2)c1 [Example 749]	Tryp AVG EC1.5 (μM) [2]: A (A (EC1.5<1 μM))
–	–	O=C(Nc1ccncn1)N1c2nc(N3CCCN(CC(F)(F)F)CC3)ccc2N2CCC[C@H]1C2 [Example 491]	Tryp AVG EC1.5 (μM) [1]: A (A (EC1.5<1 μM))
–	–	NCc1cn(-c2cccc(NC(=O)N3c4nc(-c5cccc(C(F)(F)F)c5)ccc4N4CC[C@H]3C4)c2)nn1 [Example 606]	Tryp AVG EC1.5 (μM) [1]: A (A (EC1.5<1 μM))
–	–	O=C(Nc1cnccn1)N1c2nc(-c3ccc(Cl)c(C(F)(F)F)c3)ccc2N2CC[C@H]1C2 [Example 435]	Tryp AVG EC1.5 (μM) [1]: A (A (EC1.5<1 μM))
–	–	COc1cc(NC(=O)N2c3nc(-c4cccc(Cl)c4)ccc3N3C[C@@H](O)[C@H]2C3)nc(OC)n1 [Example 680]	Tryp AVG EC1.5 (μM) [2]: B (B (EC1.5 1-25 μM))
A (A (EC1.5<1 μM))	> 150%	CCOc1cncc(NC(=O)N2c3nc(-c4ccnc(C)c4)ccc3N3CC[C@H]2C3)n1 [(9S)-N-(6-ethoxypyrazin-2-yl)-5-(2-methylpyridin-4-yl)-1,6,8-triazatricyclo[7.2.1.0 {2,7}]dodeca-2(7),3,5-triene-8-carboxamide]	–
B (B (EC1.5 1-25 μM))	> 150%	O=C(Nc1cnccn1)N1c2nc(-c3ccc(C4CC4)nc3)ccc2N2CC[C@H]1C2 [(9S)-5-(6-cyclopropylpyridin-3-yl)-N-(pyrazin-2-yl)-1,6,8-triazatricyclo[7.2.1.0 {2,7}]dodeca-2(7),3,5-triene-8-carboxamide]	–
–	–	O=C(Nc1cccnc1)N1c2nc(-c3cccc(Cl)c3)ccc2N2CCC1CC2 [Example 496]	Tryp AVG EC1.5 (μM) [1]: A (A (EC1.5<1 μM))
–	–	O=C(Nc1cccnn1)N1c2nc(-c3cncc(C(F)(F)F)c3)ccc2N2C[C@@H](O)[C@H]1C2 [Example 701]	Tryp AVG EC1.5 (μM) [2]: B (B (EC1.5 1-25 μM))
A (A (EC1.5<1 μM))	> 150%	O=C(Nc1cnccn1)N1c2nc(-c3cnn(C4CC4)c3)ccc2N2CC[C@H]1C2 [(9S)-5-(1-cyclopropyl-1H-pyrazol-4-yl)-N-(pyrazin-2-yl)-1,6,8-triazatricyclo[7.2.1.0 {2,7}]dodeca-2(7),3,5-triene-8-carboxamide]	–
–	–	O=C(Nc1ccncn1)N1c2nc(-c3cncc(F)c3)ccc2N2CCC1CC2 [Example 573]	Tryp AVG EC1.5 (μM) [1]: C (C (EC1.5>25 μM))
–	–	O=C(Nc1ccccn1)N1c2nc(-c3ccc4nonc4c3)ccc2N2CC[C@H]1C2 [Example 372]	Tryp AVG EC1.5 (μM) [3]: B (B (EC1.5 1-25 μM))
B (B (EC1.5 1-25 μM))	> 150%	Cc1cc(-c2ccc3c(n2)N(C(=O)Nc2ccn(C)n2)[C@H]2CCN3C2)ccn1 [(9S)-N-(1-methyl-1H-pyrazol-3-yl)-5-(2-methylpyridin-4-yl)-1,6,8-triazatricyclo[7.2.1.0 {2,7}]dodeca-2,4,6-triene-8-carboxamide]	–
–	–	COC(=O)c1cccc(NC(=O)N2c3nc(-c4cccc(C(F)(F)F)c4)ccc3N3CC[C@H]2C3)c1 [Example 626]	Tryp AVG EC1.5 (μM) [2]: A (A (EC1.5<1 μM))
–	–	O=C(Nc1cnccn1)N1c2nc(-c3cccc(C(F)(F)F)n3)ccc2N2CC[C@H]1C2 [Example 338]	Tryp AVG EC1.5 (μM) [3]: B (B (EC1.5 1-25 μM))
–	–	CC(C)(C)OC(=O)NCc1ccc(NC(=O)N2c3nc(-c4cccc(C(F)(F)F)c4)ccc3N3CC[C@H]2C3)cc1 [Example 793]	Tryp AVG EC1.5 (μM) [2]: B (B (EC1.5 1-25 μM))
C (C (EC1.5>25 μM))	< 150%	Cn1cc(-c2ccc3c(n2)N(C(=O)Nc2cnccn2)[C@H]2CCN3C2)ccc1=O [(9S)-5-(1-methyl-6-oxo-1,6-dihydropyridin-3-yl)-N-(pyrazin-2-yl)-1,6,8-triazatricyclo[7.2.1.0^2,7]dodeca-2(7),3,5-triene-8-carboxamide]	–
–	–	N#Cc1ccccc1-c1ccc2c(n1)N(C(=O)Nc1ccncn1)[C@H]1CCCN2C1 [Example 451]	Tryp AVG EC1.5 (μM) [1]: B (B (EC1.5 1-25 μM))
–	–	O=C(Nc1ccccn1)N1c2nc(-c3ccc(Cl)c(Cl)c3)ccc2N2CC[C@H]1C2 [Example 332]	Tryp AVG EC1.5 (μM) [3]: A (A (EC1.5<1 μM))
–	–	O=C(Nc1cccc(-c2ccoc2)n1)N1c2nc(-c3cccc(C(F)(F)F)c3)ccc2N2CC[C@H]1C2 [Example 654]	Tryp AVG EC1.5 (μM) [2]: A (A (EC1.5<1 μM))
A (A (EC1.5<1 μM))	> 150%	O=C(Nc1ccccn1)N1c2nc(N3CC[C@@H](C(F)(F)F)C3)ccc2N2CC[C@H]1C2 [(9S)-N-(pyridin-2-yl)-5-[(3R)-3-(trifluoromethyl)pyrrolidin-1-yl]-1,6,8-triazatricyclo[7.2.1.0^2,7]dodeca-2,4,6-triene-8-carboxamide]	–
B (B (EC1.5 1-25 μM))	> 150%	C[C@H]1COCCN1c1ccc2c(n1)N(C(=O)Nc1cccnc1)[C@H]1CCN2C1 [(9S)-5-[(3S)-3-methylmorpholin-4-yl]-N-(pyridin-3-yl)-1,6,8-triazatricyclo[7.2.1.0^2,7]dodeca-2(7),3,5-triene-8-carboxamide]	–
–	–	O=C(Nc1cccnc1)N1c2nc(-c3cnn(-c4ccccc4)c3)ccc2N2CC[C@H]1C2 [Example 549]	Tryp AVG EC1.5 (μM) [1]: B (B (EC1.5 1-25 μM))
